Assay results as given in US20190133968A1, “Applications of benzophenones in preparation of drug” (SHANXI MEDICAL UNIVERSITY, priority 2016, published 2019).

Test system: chronic nephritis rats
Assay: chronic nephritis rat model (passive Heymann nephritis)
Format: in vivo, SD rats
Conditions: gavage; for IL-1α / IL-1β / IL-6 / IL-10 / Scr: serum
Method: The solid dispersions are prepared through a solvent method, comprising steps of: respectively precisely weighing LM49, PVPK30 and tween80 with a weight ratio of 1:5:1, and A8, PVPK30 and tween80 with a weight ratio of 1:4:1; dissolving with appropriate absolute ethyl alcohol, continuously stirring, and uniformly mixing; placing on the water bath at 60° C., evaporating and removing the absolute ethyl alcohol, and obtaining a viscous material; placing in the freezer at −20° C., and freezing for 2 hours; taking out from the freezer, then placing in the vacuum drying oven, and drying for 24 hours; after becoming embrittlement, smashing and sieving with a sieve of 80 meshes, and then placing in the dryer for storage.
The passive Heymann nephritis is the classic model for researching the human chronic nephrosis. Thus, the present invention researches the effects of the two disclosed compounds on preventing the chronic nephritis with the model.
Ninety male SD rats having a weight of 180-220 g are selected, wherein: ten rats are selected as a blank group, and the remaining rats are used for preparing the rat Heymann nephritis models according to the method (disclosed in Journal of Proteomics, 2012, 75(3): pages 3866-3876). The successively established model rats are randomly divided into the model group, the positive control group (dexamethasone with a concentration of 0.1 mg/kg), the LM49 solid dispersion low-dose group (with the drug concentration of 3 mg/kg), the LM49 solid dispersion medium-dose group (with the drug concentration of 9 mg/kg), the LM49 solid dispersion high-dose group (with the drug concentration of 27 mg/kg), the A8 solid dispersion low-dose group (with the drug concentration of 3 mg/kg), the A8 solid dispersion medium-dose group (with the drug concentration of 9 mg/kg), and the A8 solid dispersion high-dose group (with the drug concentration of 27 mg/kg).
The rats of the blank group and the model group are administrated with the normal saline of same volume, and the rats of the other groups are respectively administrated with the drugs of the corresponding dose, by gavage, every day from model establishment for four weeks.
The blood of the rats of all groups is drawn at the second week and the fourth week from model establishment and 24-hour urine thereof is collected, for respectively measuring the contents of the urinary albumin, serum creatinine (Scr) in the serum, BUN, IL-1α, IL-1β, IL-6 and IL-10.
The data is represented in mean±(standard deviation) (x±s) and processed with the SPSS 19.0 statistical software. The one-way analysis of variance (ANOVA) is adopted for comparison among the groups, and then the LSD-Test is adopted for pairwise comparison. The differences of P<0.05 and P<0.01 are statistically significant.

[1] = high-dose 27 mg/kg, Fourth week
[2] = high-dose 27 mg/kg, Second week
[3] = medium-dose 9 mg/kg, Fourth week
[4] = medium-dose 9 mg/kg, Second week

Structure (SMILES): O=C(c1cc(OC(=O)N2CCOCC2)c(OC(=O)N2CCOCC2)cc1Cl)c1cc(Cl)ccc1OC(=O)N1CCOCC1 [A8, 4,5,2′-tris(4-morpholinemethanoyl)-2,5′-dichlorobenzophenone]
- 24-hour urinary protein quantitation [1]: 8.26 ± 1.9^ΔΔ## mg/24 h
- 24-hour urinary protein quantitation [2]: 14.77 ± 3.6^ΔΔ mg/24 h
- IL-1α [1]: 7.33 ± 2.14^ΔΔ pg/ml
- IL-1β [1]: 99.44 ± 39.74^ΔΔ# pg/ml
- IL-6 [1]: 56.95 ± 20.44^ΔΔ pg/ml
- IL-10 [1]: 40.21 ± 13.01 pg/mL
- Scr [1]: 44.55 ± 10.7 µmol/L
- IL-1α [2]: 10.69 ± 3.76 pg/mL
- IL-1β [2]: 198.20 ± 90.01^Δ pg/ml
- IL-6 [2]: 78.66 ± 35.92^ΔΔ pg/ml
- IL-10 [2]: 60.25 ± 22.34 pg/mL
- Scr [2]: 41.04 ± 10.1 µmol/L
- 24-hour urinary protein quantitation (low-dose 3 mg/kg, Fourth week): 30.22 ± 6.8 mg/24 h
- 24-hour urinary protein quantitation (low-dose 3 mg/kg, Second week): 32.98 ± 7.7 mg/24 h
- IL-1α (low-dose 3 mg/kg, Fourth week): 12.65 ± 3.14 pg/mL
- IL-1β (low-dose 3 mg/kg, Fourth week): 261.33 ± 76.55^ pg/ml
- IL-6 (low-dose 3 mg/kg, Fourth week): 89.33 ± 29.89^Δ pg/ml
- IL-10 (low-dose 3 mg/kg, Fourth week): 70.66 ± 32.28 pg/mL
- Scr (low-dose 3 mg/kg, Fourth week): 47.36 ± 13.1 µmol/L
- IL-1α (low-dose 3 mg/kg, Second week): 14.01 ± 3.99 pg/mL
- IL-1β (low-dose 3 mg/kg, Second week): 310.21 ± 70.01 pg/mL
- IL-6 (low-dose 3 mg/kg, Second week): 111.79 ± 36.28 pg/mL
- IL-10 (low-dose 3 mg/kg, Second week): 89.33 ± 36.77 pg/mL
- Scr (low-dose 3 mg/kg, Second week): 44.33 ± 11.1 µmol/L
- 24-hour urinary protein quantitation [3]: 15.01 ± 4.4^ΔΔ mg/24 h
- 24-hour urinary protein quantitation [4]: 20.02 ± 5.2^Δ mg/24 h
- IL-1α [3]: 10.10 ± 4.01 pg/mL
- IL-1β [3]: 192.56 ± 64.69^Δ pg/ml
- IL-6 [3]: 73.57 ± 25.60^ΔΔ pg/ml
- IL-10 [3]: 61.48 ± 24.53 pg/mL
- Scr [3]: 45.99 ± 14.4 µmol/L
- IL-1α [4]: 12.63 ± 4.56 pg/mL
- IL-1β [4]: 277.65 ± 60.39 pg/mL
- IL-6 [4]: 90.31 ± 30.41^Δ pg/ml
- IL-10 [4]: 74.55 ± 32.12 pg/mL
- Scr [4]: 45.66 ± 12.2 µmol/L

Structure (SMILES): O=C(c1cc(Br)ccc1O)c1cc(O)c(O)cc1Br [LM49, 2,5′-dibromo-4,5,2′-trihydroxyldiphenylmethanone]
- 24-hour urinary protein quantitation [1]: 9.55 ± 2.8^ΔΔ## mg/24 h
- 24-hour urinary protein quantitation [2]: 18.11 ± 3.2^Δ mg/24 h
- IL-1α [1]: 8.42 ± 2.76^ΔΔ pg/ml
- IL-1β [1]: 200.44 ± 59.31^Δ pg/ml
- IL-6 [1]: 77.03 ± 36.53^ΔΔ pg/ml
- IL-10 [1]: 31.42 ± 10.09 pg/mL
- Scr [1]: 46.97 ± 11.6 µmol/L
- IL-1α [2]: 11.44 ± 3.95 pg/mL
- IL-1β [2]: 227.21 ± 95.41^Δ pg/ml
- IL-6 [2]: 91.11 ± 40.63^ΔΔ pg/ml
- IL-10 [2]: 55.75 ± 17.61 pg/mL
- Scr [2]: 41.42 ± 10.6 µmol/L
- 24-hour urinary protein quantitation (low-dose 3 mg/kg, Fourth week): 22.18 ± 6.3 mg/24 h
- 24-hour urinary protein quantitation (low-dose 3 mg/kg, Second week): 34.43 ± 6.6 mg/24 h
- IL-1α (low-dose 3 mg/kg, Fourth week): 13.98 ± 3.77 pg/mL
- IL-1β (low-dose 3 mg/kg, Fourth week): 380.39 ± 80.66^ pg/ml
- IL-6 (low-dose 3 mg/kg, Fourth week): 130.12 ± 45.19 pg/mL
- IL-10 (low-dose 3 mg/kg, Fourth week): 60.01 ± 26.61 pg/mL
- Scr (low-dose 3 mg/kg, Fourth week): 47.78 ± 11.2 µmol/L
- IL-1α (low-dose 3 mg/kg, Second week): 14.53 ± 4.76 pg/mL
- IL-1β (low-dose 3 mg/kg, Second week): 388.25 ± 72.31 pg/mL
- IL-6 (low-dose 3 mg/kg, Second week): 131.23 ± 41.33 pg/mL
- IL-10 (low-dose 3 mg/kg, Second week): 80.09 ± 33.11 pg/mL
- Scr (low-dose 3 mg/kg, Second week): 49.44 ± 11.1 µmol/L
- 24-hour urinary protein quantitation [3]: 17.65 ± 5.7^ΔΔ mg/24 h
- 24-hour urinary protein quantitation [4]: 24.99 ± 5.0 mg/24 h
- IL-1α [3]: 12.15 ± 4.76 pg/mL
- IL-1β [3]: 297.55 ± 94.66^Δ pg/ml
- IL-6 [3]: 90.66 ± 40.03^Δ pg/ml
- IL-10 [3]: 51.51 ± 18.09 pg/mL
- Scr [3]: 46.57 ± 10.9 µmol/L
- IL-1α [4]: 13.62 ± 4.87 pg/mL
- IL-1β [4]: 351.11 ± 100.32 pg/mL
- IL-6 [4]: 100.15 ± 32.51 pg/mL
- IL-10 [4]: 61.31 ± 23.89 pg/mL
- Scr [4]: 45.88 ± 12.2 µmol/L
